Measured values as given in patent US20230293535A1, “ERBB/BTK INHIBITORS” (Dizal (Jiangsu) Pharmaceutical Co., Ltd., priority 2018, published 2023).
Structures can show the parent of a compound that is named as a salt. Where two headings read alike, the source gives them in different places.

How the values were obtained:
[1] = target: T1, WT EGFR (Homo sapiens, UniProt P00533); test: WT EGFR cellular phosphorylation inhibition in A-431 (hEGF stimulated, MSD); assay type: cell-based; conditions: A431 cells, 4 h compound, then 100 ng/ml hEGF 10 min;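 also: electrochemiluminescence read-out of EGFR Tyr1068 phosphorylation expressed as ratio to total EGFR, cells kept in medium with 1% FBS, compounds tested as a concentration series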
T1 construct: host or cells: A-431

[2] = system: Ba/F3 EGFR ASV ins cells; test: Cell proliferation, Ba/F3 EGFR ASV ins (CellTiter-Glo, 72 h); assay type: cell-based; conditions: Ba/F3 EGFR ASV ins, 72 h proliferation, read-out: EGFR Exon20 ASV insertion GI50;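 also: IL3-independent Ba/F3 cells transduced with EGFR V769_D770insASV, cellular ATP luminescence after compound exposure, growth relative to DMSO control with the day-0 baseline reading subtracted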
Method: (§1) WT or mutant cells were seeded in 384 well plates at appropriate concentrations with corresponding growth media supplemented with 10% FBS, for each experiment, identical plates were prepared in duplicates, and the plates were incubated overnight. On the next day, one of each duplicated plates was dosed with tested compounds at a series of concentrations, and another one of the duplicated plate was analysied for G0 value. The dosed plates were incubate for another 72 h at 37° C. with 5% CO2 and the number of viable cells in each well of the G0 plates or the dosed plates were measured by CellTiter-Glo® Luminescent Cell Viability Assay (Promega). This assay is a luminescent method for determining the number viable cells through measurement of cellular ATP concentration by detection of luciferase activity. Detection reagents (15 µl) was dispensed into per well, and the plates were incubate for 30 min at room temperature. Then, the luminescence in each well was measured using the Envision plate reader (PerkinElmer). The percentage of proliferation was calculated based on the formula: %Proliferation= 100 × (G3 value of sample well-Go value)/(G3 value of DMSO control-Go value).

[3] = system: WT EGFR cell line A-431; test: Cell proliferation, WT EGFR A431 (CellTiter-Glo, 72 h); assay type: cell-based; conditions: A431, 72 h proliferation, read-out: EGFR WT A431 GI50;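 also: proliferation from a luminescent ATP viability signal, expressed as 100 × (treated minus time-zero plate) over (DMSO control minus time-zero plate), cells grown with 10% FBS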
[4] = system: Ba/F3 EGFR NPH ins cells; test: Cell proliferation, Ba/F3 EGFR NPH ins (CellTiter-Glo, 72 h); assay type: cell-based; conditions: Ba/F3 EGFR NPH ins, 72 h proliferation, read-out: EGFR Exon20 NPH insertion GI50;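 also: IL3-independent cells carrying constitutively phosphorylated EGFR, compound dilution series, viable cells quantified by ATP luminescence, growth relative to DMSO wells after subtracting pre-dosing (day 0) baseline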
Method: Similar to recombinant human EGFR exon 20 H769_V770insASV Ba/F3 cell line, the recombinant human EGFR exon 20 H773_V774insNPH Ba/F3 cell line also expresses constitutively phosphorylated EGFR protein and proliferates in the absence of IL3, which could be used for in vitro PD and anti-proliferation assays.
as §1

[5] = system: human hepatocytes; test: In vitro human hepatocytes clearance assay; conditions: mixed gender human hepatocytes, incubation up to 100 min
[6] = target: T2, Phospho-BTK (Tyr223) (Homo sapiens, UniProt Q06187); test: p-BTK assay in Ramos cells (HTRF Phospho-BTK Tyr223); assay type: cell-based; conditions: pervanadate stimulated, read-out: p-BTK (Romas) IC50
T2 construct: endogenous in cells; host or cells: Ramos
Method: The assay plates were then incubated for 30 minutes at 37° C., 5% CO2. 300 uM Per vanadate (3X) was added to each well and the assay plates were again incubated for 60 minutes at 37° C., 5% CO2. Phospho-BTK (Tyr223) is detected using the HTRF® reagents (Cisbio) according to the manufacturer’s one-plate assay protocol.

[7] = system: Ri-1 cells; test: BTK (wt) cell proliferation, Ri-1 (CellTiter-Glo, 72 h); assay type: cell-based; conditions: Ri-1 cells, 72 h, CellTiter-Glo, read-out: BTK WT Ri-1 GI50;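 also: viable cells quantified as cellular ATP luminescence, proliferation normalized to a time-zero plate and the DMSO control, compounds tested across a dilution series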
[8] = system: TMD-8 cells; test: BTK (wt) cell proliferation, TMD-8 (CellTiter-Glo, 72 h); assay type: cell-based; conditions: TMD-8 cells, 72 h, CellTiter-Glo, read-out: BTK WT TMD-8 GI50;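 also: viable cells quantified by ATP-based luminescence, proliferation expressed as percent of DMSO control after subtracting a time-zero baseline plate read at dosing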
[9] = system: OCI-LY-10 cells; test: BTK (wt) cell proliferation, OCI-LY-10 (CellTiter-Glo, 72 h); assay type: cell-based; conditions: OCI-LY-10 cells, 72 h, CellTiter-Glo, read-out: BTK WT OCI-LY-10 GI50;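 also: viable cells quantified via cellular ATP luminescence, proliferation given as percent of DMSO control after subtracting a duplicate plate read at time of dosing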
Method: OCI-LY-10 at 3,750 cells/well, TMD-8 and Ri-1 at 2,000 cells/well, and DB at 1,250 cells/well, respectively, were sorted into 384-well plates in RPMI1640 medium with 10% FBS. After overnight incubation, all cells were incubated with compound at a series of concentrations. Meanwhile, a duplicated plate of each cell line was prepared for measuring G0 value. The dosed plates were further incubated for 72 hours and the number of viable cells was measured by CellTiter-Glo® Luminescent Cell Viability Assay (Promega), a luminescent method for determining the number of viable cells through measurement of cellular ATP concentration using Envision plate reader (PerkinElmer). The percentage of proliferation was calculated as: % Proliferation = 100 × (G3 value of sample well - G0 value)/(G3 value of DMSO control - G0 value).

[10] = target: T3, EGFR L858R&T790M (Homo sapiens, UniProt P00533, L858R/T790M); test: EGFR L858R and T790M cellular phosphorylation inhibition in NCI-H1975 (MSD); assay type: cell-based; conditions: NCI-H1975 cells, 4 h compound, p-EGFR(Y1068)/total EGFR; read-out: EGFR L858R and T790M mutation IC50;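 also: phosphorylated and total EGFR detected by electrochemiluminescence, cells exposed to compound in medium containing 1% FBS at 37 °C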
T3 construct: host or cells: NCI-H1975

[11] = system: Her2 exon 20 insertion YVMA transduced NIH-3T3 cell line; test: Cell proliferation, Her2 YVMAins NIH-3T3 (CellTiter-Glo, 72 h); assay type: cell-based; conditions: Her2 YVMAins cells, 72 h proliferation, read-out: Her2 Exon 20 YVMA insertion GI50;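 also: viable cells quantified by ATP luminescence, growth over a day-zero baseline plate expressed as percent of DMSO control growth, compound dilution series in 10% FBS medium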
Method: as §1

[12] = target: T4, human EGFR exon 20 V769_D770insASV (Homo sapiens, UniProt P00533, INS769ASV); test: EGFR Exon20 ASV insertion cellular phosphorylation inhibition (MSD pEGFR Y1068/total EGFR); assay type: cell-based; conditions: Ba/F3 EGFR ASV ins cells, 4 h compound, p-EGFR(Y1068)/total EGFR;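 also: electrochemiluminescent readout on an MSD SECTOR Imager, IL3-independent transduced cells in medium with 1% FBS, compound concentration series at 37 °C and 5% CO2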
T4 construct: expressed in transfected cells; host or cells: Ba/F3 (DSMZ ACC-300), lentiviral transduction, puromycin selection, IL3 depletion
Method: To generate the EGFR exon 20 V769_D770insASV transduced Ba/F3 cell line, the parental Ba/F3 cells were infected with the recombinant EGFR V769_D770insASV lentivirus and then followed by 1 µg/ml of puromycin selection and IL3 depletion. The resulting cell line expresses constitutively phosphorylated EGFR protein and proliferates in the absence of IL3, which could be used for in vitro PD and anti-proliferation assays.
One day before the test, WT or mutant cells were seeded in 96 well plates at appropriate concentrations with corresponding growth media supplemented with 1% FBS, and incubated overnight. The next day, tested compounds at a series of concentrations were added into each individual well of the plates, and the plates were incubated for 4 h at 37° C. with 5% CO2.
The EGFR (Y1068) phosphorylation level (activity) of cells in each well were then measured with MSD kit named “MULTI-SPOT®96 4-Spot HB Prototype EGFR Triplex [sequence]: pEGFR(Tyr1068),pEGFR(Tyr1173), Total EGFR” according to the manufacturer’s instruction (MESO SCALE DISCOVERY, Cat# N45ZB-1). The assay is an electrochemiluminescent method for determining both phosphorylated and total EGFR of cells with an MSD SECTOR® Imager and the ratio of p-EGFR/total EGFR can be generated by the machine. The Her2 (Y1248) phosphorylation level (activity) of cells in each well were measured with MSD Kit named “Phospho-ErbB2 (Tyr1248) Assay Whole Cell Lysate Kit” according to the manufacturer’s instruction (MESO SCALE DISCOVERY, Cat# K151CLD-3). The assay is an electrochemiluminescent method (MESO SCALE DISCOVERY) for determining both phosphorylated and total Her2 of cells with an MSD SECTOR® Imager and then the ratio of p-Her2/total Her2 can be generated by the machine.

[13] = system: DB cells; test: BTK (wt) cell proliferation, DB (CellTiter-Glo, 72 h); assay type: cell-based; conditions: DB cells, CellTiter-Glo, read-out: Non-BCR activated DB GI50;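 also: DB cells in 384-well plates given a dilution series of compound, viable cells read by ATP luminescence, growth expressed versus DMSO control after subtracting a time-zero plate reading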
[14] = system: rat hepatocytes; test: In vitro rat hepatocytes clearance assay; conditions: male rat hepatocytes, 1 µM-range incubation up to 100 min
Method: (§2) The protocol for rat/human hepatocytes metabolic stability assay is employed to determine the clearance of the compounds of the present disclosure in vitro.
(§3) Rat hepatocytes in male gender and human hepatocytes in mixed gender were obtained from commercial vendors (e.g., BioreclamationIVT) and stored at -150° C. prior to use. 10 mM stock solutions of tested compounds were prepared in DMSO. Thawing medium and supplement incubation medium (serum-free) were placed in a 37° C. water bath for at least 15 minutes prior to use. Stock solutions were diluted to 100 µM by combining 198 µL acetonitrile and 2 µL of 10 mM stock solution.
(§4) Vials of cryopreserved hepatocytes were removed from storage, ensured that vials remain at cryogenic temperatures. The vials were thawed in a 37° C. water bath with gently shaking. Vials were kept in water bath until all ice crystals had dissolved and were no longer visible. Vials were sprayed with 70% ethanol before being transferred to a biosafety cabinet. And then the contents were poured into the 50 mL thawing medium conical tube. Vials were centrifuged at 100 g for 10 minutes at room temperature.
(§5) Cell viability and density were counted using a Trypan Blue exclusion, and then cells were diluted with serum-free incubation medium to a working cell density of 1 × 10^6 viable cells/ml. […] The inactivated hepatocytes were used to prepare negative samples, which were used to exclude the misleading factor that resulted from instability of chemical itself.
(§6) Aliquots of 247.5 µL hepatocytes were dispensed into each well of a 96-well non-coated plate. The plate was placed in the incubator on an orbital shaker for approximately 10 minutes. Aliquots of 2.5 µL of the 100 µM test compounds were added into respective wells of the non-coated 96-well plate to start the reaction. This assay was performed in duplicate. The plate was incubated in the incubator on an orbital shaker for the designed time points. […] Samples were centrifuges for 20 minutes at 4000 g and aliquots of 100 µL of the supernatants were used for LC-MS/MS analysis for measurement of test compounds
(§7) In vitro hepatocyte clearance was estimated based on determination of elimination half-life (T½) of compounds disappearance from their initial concentrations. Peak area ratios of each compound (test or control) to IS was calculated. Ln (%Control) versus Incubation Time (min) curve was plotted, and the slope of a linear fitting line was calculated.

[15] = system: NCI-H1975 EGFR L858R/T790M cells; test: Cell proliferation, NCI-H1975 EGFR L858R/T790M (CellTiter-Glo, 72 h); assay type: cell-based; conditions: NCI-H1975, 72 h proliferation, read-out: EGFR L858R and T790M mutation GI50;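 also: viable cells quantified by luciferase-based ATP luminescence, proliferation expressed relative to DMSO-treated wells (100%) after subtracting a parallel plate read at the time of dosing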
[16] = target: T5, BTK (Homo sapiens, UniProt Q06187); test: BTK target site occupancy ELISA (Ramos); assay type: cell-based; design: endogenous in cells; host or cells: Ramos; conditions: BTK receptor occupancy, read-out: Occupancy (Romas) IC50
Method: (§8) An enzyme-linked immunosorbent assay (ELISA) method for the detection of free uninhibited Btk in mouse and human lysates. Human or mouse whole blood were incubated with compound for 2 hour at 37° C. Whole blood were lysed in ice-cold lysis buffer containing 50 mM Tris-HCl, pH 7.5, 150 mM NaCl, 1 mM EDTA,1% Triton X-100. […] Samples were transferred to a streptavidin-coated 96-well ELISA plate and mixed while shaking for 1 hour at room temperature. The α-Btk antibody (1:500; clone number D3H5, Cell signaling Technology, Danvers, MA, USA) was then added to the well and incubated for 1 hour at room temperature. After wash, goat α-rabbit-FW (1:5000 dilution in PBS+ 0.05% Tween-20 + 1% BSA) was added to each well and incubated for 1 h at room temperature. The ELISA was developed with addition of tetramethyl benzidine (TMB) followed by Stop Solution and read at OD 450 nm.

[17] = target: T6, human Her2 exon 20 insertion mutation YVMA (Homo sapiens, UniProt P04626, INS775YVMA); test: Her2 Exon 20 YVMA insertion cellular phosphorylation inhibition (MSD p-Her2 Y1248/total Her2); assay type: cell-based; conditions: Her2 YVMAins cells, 4 h compound;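 also: lentivirally transduced NIH-3T3 cells in 1% FBS medium, electrochemiluminescent MSD read-out, graded compound concentrations at 37 °C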
T6 construct: expressed in transfected cells; host or cells: NIH-3T3, lentiviral transduction, puromycin selection

[18] = target: T5, BTK; test: BTK target site occupancy ELISA (PBMC); assay type: cell-based; conditions: BTK receptor occupancy
Method: as §8

[19] = target: T7, human EGFR exon 20 H773_V774insNPH (Homo sapiens, UniProt P00533, INS773NPH); test: EGFR Exon20 NPH insertion cellular phosphorylation inhibition (MSD pEGFR Y1068/total EGFR); assay type: cell-based; conditions: Ba/F3 EGFR NPH ins cells, 4 h compound, p-EGFR(Y1068)/total EGFR;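 also: IL3-independent Ba/F3 cells with constitutively phosphorylated EGFR, compound exposure at 37 °C under 5% CO2, electrochemiluminescent MSD measurement of the p-EGFR to total EGFR ratio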
T7 construct: host or cells: Ba/F3

[20] = In vitro human hepatocytes clearance assay; conditions: both, human, cryopreserved human hepatocytes (suspension), human hepatocytes Clint (µL/min/10^6cells), mixed gender human hepatocytes, incubation up to 100 min
[21] = In vitro rat hepatocytes clearance assay; conditions: male, rat, cryopreserved rat hepatocytes (suspension), rat hepatocytes Clint (µL/min/10^6cells), 1 µM-range incubation up to 100 min
Method: as §2, §3, §4, §5, §6, §7

[22] = Rat pharmacokinetic study after oral administration (SOA); assay type: in vivo; conditions: male Han Wistar rats
Method: For rat pharmacokinetic studies, six male Han Wistar rats were purchased from Beijing Vital River and orally dosed with the test compound at 10 mg/kg in 0.5% Tween-80 and 0.5% hydroxypropyl methylcellulose (v/w). At, 0.5, 1, 2, 4, 7 and 16 hours post-dose, blood samples (>100 µL/time point) were collected from portal vein and via cardiac puncture into separate K2EDTA […] tubes, and then immediately centrifuged at 1500 g, 5 min at 4° C. to separate plasma. The plasma samples were deproteinized with 4 fold acetonitrile (including internal standard), vortex for 10 min and centrifuges for 10 minutes at 4000 g at 4° C.. The supernatantswere submitted to LC/MS/MS (API 5500, Applied Biosystems, Foster City) analysis. Two sets of standard curves were run at the beginning and end of each batch from plasma sample analysis.
Compound absorption was measured by portal vein AUC (AUCHPV) and systemic AUC (AUCSYS) observed maximum concentration (Cmax) in rats after oral administration. Dose is the actual dose used in SOA study. Find below in Table 9 data for exemplary tested compounds.

T1 sequence (P00533 25-1210): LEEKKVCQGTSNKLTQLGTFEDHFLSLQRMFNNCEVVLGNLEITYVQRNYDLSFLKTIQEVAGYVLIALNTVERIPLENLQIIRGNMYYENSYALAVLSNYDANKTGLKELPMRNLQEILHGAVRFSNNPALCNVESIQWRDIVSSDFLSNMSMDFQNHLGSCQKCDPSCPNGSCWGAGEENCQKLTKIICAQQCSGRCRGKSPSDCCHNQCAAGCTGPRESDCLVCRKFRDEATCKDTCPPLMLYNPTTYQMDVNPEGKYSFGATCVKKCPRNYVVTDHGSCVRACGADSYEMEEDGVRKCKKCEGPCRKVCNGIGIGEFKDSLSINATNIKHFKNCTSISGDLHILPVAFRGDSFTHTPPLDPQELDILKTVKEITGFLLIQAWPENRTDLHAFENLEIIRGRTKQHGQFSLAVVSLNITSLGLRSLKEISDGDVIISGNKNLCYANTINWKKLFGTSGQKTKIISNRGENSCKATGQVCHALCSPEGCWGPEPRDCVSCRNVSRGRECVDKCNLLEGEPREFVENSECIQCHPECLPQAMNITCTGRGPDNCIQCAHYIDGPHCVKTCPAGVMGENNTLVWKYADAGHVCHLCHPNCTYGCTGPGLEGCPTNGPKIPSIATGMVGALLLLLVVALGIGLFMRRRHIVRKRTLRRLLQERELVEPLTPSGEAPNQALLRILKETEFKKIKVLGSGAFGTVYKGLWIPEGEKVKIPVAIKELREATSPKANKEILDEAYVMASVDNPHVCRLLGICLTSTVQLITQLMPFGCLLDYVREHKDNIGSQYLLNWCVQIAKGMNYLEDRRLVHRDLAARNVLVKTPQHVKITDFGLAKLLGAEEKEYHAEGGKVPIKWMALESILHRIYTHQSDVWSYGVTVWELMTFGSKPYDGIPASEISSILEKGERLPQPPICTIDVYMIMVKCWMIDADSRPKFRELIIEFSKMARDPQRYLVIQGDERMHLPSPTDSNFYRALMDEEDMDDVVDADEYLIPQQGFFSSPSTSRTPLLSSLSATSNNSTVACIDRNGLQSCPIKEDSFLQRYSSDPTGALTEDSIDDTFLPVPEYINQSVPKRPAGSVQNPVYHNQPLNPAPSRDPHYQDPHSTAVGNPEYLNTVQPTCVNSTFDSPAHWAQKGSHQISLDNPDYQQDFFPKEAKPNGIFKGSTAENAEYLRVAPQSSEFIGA
T2 sequence (Q06187 whole entry): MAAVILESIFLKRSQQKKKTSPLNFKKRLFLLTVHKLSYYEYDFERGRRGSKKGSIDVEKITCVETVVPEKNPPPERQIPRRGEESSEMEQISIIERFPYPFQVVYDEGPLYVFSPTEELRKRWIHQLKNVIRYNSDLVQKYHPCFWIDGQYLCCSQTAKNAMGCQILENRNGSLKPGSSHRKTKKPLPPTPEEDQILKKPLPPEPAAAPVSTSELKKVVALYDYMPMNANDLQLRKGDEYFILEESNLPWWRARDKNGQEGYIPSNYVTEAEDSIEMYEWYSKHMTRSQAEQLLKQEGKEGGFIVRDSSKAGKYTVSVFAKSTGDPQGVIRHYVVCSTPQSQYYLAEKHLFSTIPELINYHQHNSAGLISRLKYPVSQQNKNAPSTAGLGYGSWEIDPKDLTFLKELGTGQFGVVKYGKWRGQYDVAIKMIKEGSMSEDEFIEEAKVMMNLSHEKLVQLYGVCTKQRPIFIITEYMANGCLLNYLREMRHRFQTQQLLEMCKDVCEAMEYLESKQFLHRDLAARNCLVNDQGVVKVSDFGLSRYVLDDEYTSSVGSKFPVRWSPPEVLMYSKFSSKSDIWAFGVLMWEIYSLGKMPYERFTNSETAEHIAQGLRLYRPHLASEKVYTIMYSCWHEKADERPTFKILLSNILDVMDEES
T5 sequence (Q06187 whole entry): as above
T7 sequence (P00533 with tags, fused parts or gaps INS773NPH): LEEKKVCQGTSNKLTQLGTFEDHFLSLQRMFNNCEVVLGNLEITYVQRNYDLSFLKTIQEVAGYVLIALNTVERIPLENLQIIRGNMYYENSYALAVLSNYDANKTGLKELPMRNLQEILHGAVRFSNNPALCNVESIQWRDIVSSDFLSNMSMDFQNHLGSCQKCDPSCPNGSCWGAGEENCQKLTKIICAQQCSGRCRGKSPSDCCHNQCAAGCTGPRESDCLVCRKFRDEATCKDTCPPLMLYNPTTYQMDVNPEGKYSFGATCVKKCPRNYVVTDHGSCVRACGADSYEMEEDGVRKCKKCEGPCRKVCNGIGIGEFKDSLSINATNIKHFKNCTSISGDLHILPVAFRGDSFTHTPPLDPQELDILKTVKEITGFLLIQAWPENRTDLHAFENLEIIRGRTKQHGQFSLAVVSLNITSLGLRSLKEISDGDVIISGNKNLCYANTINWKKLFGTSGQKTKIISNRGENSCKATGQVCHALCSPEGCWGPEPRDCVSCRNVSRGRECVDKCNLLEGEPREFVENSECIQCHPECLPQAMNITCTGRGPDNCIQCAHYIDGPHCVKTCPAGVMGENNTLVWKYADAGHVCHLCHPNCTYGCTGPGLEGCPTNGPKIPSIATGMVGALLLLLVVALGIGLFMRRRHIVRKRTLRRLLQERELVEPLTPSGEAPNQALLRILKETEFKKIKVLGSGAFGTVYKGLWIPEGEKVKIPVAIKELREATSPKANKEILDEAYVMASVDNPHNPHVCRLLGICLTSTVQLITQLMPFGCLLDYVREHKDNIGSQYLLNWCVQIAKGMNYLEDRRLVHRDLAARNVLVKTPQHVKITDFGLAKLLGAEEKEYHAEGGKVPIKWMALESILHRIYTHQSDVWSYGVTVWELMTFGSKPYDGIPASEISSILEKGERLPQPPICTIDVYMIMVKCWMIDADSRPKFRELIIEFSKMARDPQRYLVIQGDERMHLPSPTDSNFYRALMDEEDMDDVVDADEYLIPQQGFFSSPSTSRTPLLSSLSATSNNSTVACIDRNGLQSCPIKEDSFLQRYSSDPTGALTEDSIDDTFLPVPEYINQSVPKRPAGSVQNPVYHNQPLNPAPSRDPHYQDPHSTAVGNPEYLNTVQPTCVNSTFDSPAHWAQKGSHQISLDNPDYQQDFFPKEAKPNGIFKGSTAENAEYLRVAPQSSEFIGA
T3 sequence (P00533 25-1210 T790M/L858R): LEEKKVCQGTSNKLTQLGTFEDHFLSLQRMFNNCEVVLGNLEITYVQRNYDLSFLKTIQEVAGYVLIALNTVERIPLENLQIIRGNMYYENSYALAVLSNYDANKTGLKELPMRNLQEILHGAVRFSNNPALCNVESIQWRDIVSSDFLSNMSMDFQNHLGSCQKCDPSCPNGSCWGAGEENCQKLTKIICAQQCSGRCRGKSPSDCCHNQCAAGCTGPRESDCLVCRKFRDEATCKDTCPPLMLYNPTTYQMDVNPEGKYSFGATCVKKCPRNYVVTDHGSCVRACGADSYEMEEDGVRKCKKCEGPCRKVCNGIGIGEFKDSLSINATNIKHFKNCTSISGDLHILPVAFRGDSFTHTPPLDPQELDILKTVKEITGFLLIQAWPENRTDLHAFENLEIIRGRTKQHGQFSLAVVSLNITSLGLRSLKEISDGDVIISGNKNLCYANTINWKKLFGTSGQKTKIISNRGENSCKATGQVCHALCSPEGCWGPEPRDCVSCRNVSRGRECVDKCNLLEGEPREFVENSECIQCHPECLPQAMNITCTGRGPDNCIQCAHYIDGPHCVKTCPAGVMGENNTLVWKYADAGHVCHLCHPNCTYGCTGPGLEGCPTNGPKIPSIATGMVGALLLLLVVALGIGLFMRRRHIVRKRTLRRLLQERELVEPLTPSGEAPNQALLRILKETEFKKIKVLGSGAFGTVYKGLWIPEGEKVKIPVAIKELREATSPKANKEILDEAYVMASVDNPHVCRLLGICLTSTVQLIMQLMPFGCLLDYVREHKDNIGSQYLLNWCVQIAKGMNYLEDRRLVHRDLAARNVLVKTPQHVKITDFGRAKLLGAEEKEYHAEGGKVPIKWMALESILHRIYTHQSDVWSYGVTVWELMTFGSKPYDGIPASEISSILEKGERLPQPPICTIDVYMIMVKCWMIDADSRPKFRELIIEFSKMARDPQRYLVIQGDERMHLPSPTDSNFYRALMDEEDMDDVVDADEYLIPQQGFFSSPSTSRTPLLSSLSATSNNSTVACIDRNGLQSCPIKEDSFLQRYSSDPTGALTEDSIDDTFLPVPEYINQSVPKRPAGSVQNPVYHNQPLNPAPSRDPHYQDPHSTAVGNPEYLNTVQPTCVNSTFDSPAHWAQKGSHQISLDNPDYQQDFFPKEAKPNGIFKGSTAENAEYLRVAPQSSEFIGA

SMILES	IC50 [1] [µM]	GI50 [2] [µM]	GI50 [3] [µM]	GI50 [4] [µM]	IC50 [6] [µM]	IC50 [10] [µM]	IC50 [12] [µM]	IC50 [16] [µM]	IC50 [17] [µM]	IC50 [18] [µM]	IC50 [19] [µM]	GI50 ([2]; Ba/F3 EGFR, 72 h) [µM]	GI50 ([3]; Homo sapiens, A-431, 72 h) [µM]	GI50 ([4]; Ba/F3 EGFR, 72 h) [µM]	GI50 ([7]; Ri-1, 72 h) [µM]	GI50 ([8]; Homo sapiens, TMD8, 72 h) [µM]	GI50 ([9]; Homo sapiens, OCI-Ly10, 72 h) [µM]	GI50 ([11]; Mus musculus, NIH3T3, 72 h) [µM]	GI50 ([13]; Homo sapiens, DB) [µM]	GI50 ([15]; Homo sapiens, NCI-H1975, 72 h) [µM]	other results
C=CC(=O)Nc1cc(Nc2nccc(Nc3cc(Cl)c(F)cc3C(C)(O)CC)n2)c(OC)cc1N1CC[C@@H](N(C)C)C1 (single isomer, unassigned) [Compound 77, N-(5-(4-(5-chloro-4-fluoro-2-((R)-2-hydroxybutan-2-yl)phenylamino)pyrimidin-2-ylamino)-2-((R)-3-(dimethylamino)pyrrolidin-1-yl)-4-methoxyphenyl) acrylamide or N-(5-(4-(5-chloro-4-fluoro-2-((S)-2-hydroxybutan-2-yl)phenylamino)pyrimidin-2-ylamino)-2-((R)-3-(dimethylamino)pyrrolidin-l-yl)-4-methoxyphenyl) acrylamide]	0.303	0.102	0.0324	0.0819	0.0016	0.0017	0.0508	0.00049	0.0215	0.0017	0.0448	–	–	–	–	–	–	–	–	–	human hepatocytes Clint (µL/min/10^6cells) [5]: 7.87 µL/min/10^6cells; GI50 [7]: 0.00155 µM; GI50 [8]: 0.00119 µM; GI50 [9]: 0.00123 µM; GI50 [11]: 0.109 µM; GI50 [13]: 1.75 µM; rat hepatocytes Clint (µL/min/10^6cells) [14]: 15.8 µL/min/10^6cells; GI50 [15]: 0.0036 µM
C=CC(=O)Nc1cc(Nc2nccc(Nc3cc(Cl)c(F)cc3C(C)(C)O)n2)c(OC)cc1N1CC[C@@H](NC)C1 [Compound 80, (R)-N-(5-(4-(5-chloro-4-fluoro-2-(2-hydroxypropan-2-yl)phenylamino)pyrimidin-2-ylamino)-4-methoxy-2-(3-(methylamino)pyrrolidin-1-yl)phenyl)acr ylamide TFA salt]	0.35	–	–	–	0.0058	0.0045	0.0368	0.0034	0.0518	0.0057	0.095	0.177	0.0815	0.22	> 3	0.0402	0.0237	0.467	> 3	0.0148	hepatocyte CLint at 1 µM [20]: 2.81 µL/min/1e6 cells; hepatocyte CLint at 1 µM [21]: 15.5 µL/min/1e6 cells
C=CC(=O)Nc1cc(Nc2nccc(Nc3cc(Cl)c(F)cc3C(C)(C)O)n2)c(OC)cc1N1CC[C@@H]1CN(C)C [Compound 53, (R)-N-(5-(4-(5-chloro-4-fluoro-2-(2-hydroxypropan-2-yl)phenylamino)pyrimidin-2-ylamino)-2-(2-((dimethylamino)methyl)azetidin-1-yl)-4-methoxyphenyl)acrylamide]	0.139	–	–	–	0.0038	0.0011	0.0258	0.0031	0.0109	0.0038	0.03	0.084	0.0718	0.0893	0.0171	0.00639	0.00916	0.137	> 3	0.004	hepatocyte CLint at 1 µM [20]: 4.04 µL/min/1e6 cells; SOA DN AUCSYS (ng·h/mL)/(mg/kg) ([22]; dose-normalised systemic AUC): 116 (ng·h/mL)/(mg/kg); Cmax ([22]; rat, plasma, nominal 10 mg/kg (actual dose in c1)): 0.195 µg/mL; hepatocyte CLint at 1 µM [21]: 12.3 µL/min/1e6 cells
C=CC(=O)Nc1cc(Nc2ncnc(Nc3cc(F)c(F)cc3C(C)(C)O)n2)c(OC)cc1N1CC(CN(C)C)C1 [Compound 23, N-(5-(4-(4,5-difluoro-2-(2-hydroxypropan-2-yl)phenylamino)-1,3,5-triazin-2-ylamino)-2-(3-((dimethylamino)methyl)azetidin-1-yl)-4-methoxyphenyl)acr ylamide]	0.101	–	–	–	0.0016	0.0013	0.0876	0.0011	0.0527	0.0011	0.321	0.159	0.0768	0.224	0.00371	0.00393	0.00149	0.271	> 3	0.0347	–
C=CC(=O)Nc1cc(Nc2ncnc(Nc3cc(Cl)c(F)cc3C(C)(O)CC)n2)c(OC)cc1N1CC[C@@H](N(C)C)C1 (single isomer, unassigned) [Compound 70, N-(5-(4-(5-chloro-4-fluoro-2-((R)-2-hydroxybutan-2-yl)phenylamino)-1,3,5-triazin-2-ylamino)-2-((R)-3-(dimethylamino)pyrrolidin-1-yl)-4-methoxyphenyl)acrylamide or N-(5-(4-(5-chloro-4-fluoro-2-((S)-2-hydroxybutan-2-yl)phenylamino)-1,3,5-triazin-2-ylamino)-2-((R)-3-(dimethylamino)pyrrolidin-1-yl)-4-methoxyphenyl)acrylamide]	0.0712	0.0654	0.0154	0.0658	–	0.0015	0.0223	–	0.0157	–	0.0675	–	–	–	–	–	–	–	–	–	human hepatocytes Clint (µL/min/10^6cells) [5]: 3.69 µL/min/10^6cells; GI50 [7]: 0.0889 µM; GI50 [8]: 0.0102 µM; GI50 [9]: 0.0222 µM; GI50 [11]: 0.072 µM; GI50 [13]: > 3 µM; rat hepatocytes Clint (µL/min/10^6cells) [14]: 12.9 µL/min/10^6cells; GI50 [15]: 0.0091 µM
